The text below walks through data of US20190291112A1, “DROPLET MICROFLUIDICS FOR DRUG SCREENING” (University of Macau, priority 2018, published 2019).

One data set has as its system cancer cell lines. In words: Carrier fluid and surfactant optimization, cell viability on chip. The format is cell-based. The conditions noted are these: surfactant, all tested concentrations. The text has this: Firstly, we optimized the carrier fluid or oil phase to assure cell viability on chip for a minimum of 7 days for cancer cell lines. Commercial oils including Fluorinert® series oils, e.g. fluorocarbon oils, silicone oil, and mineral oil in combination with different surfactants (either mixed with oil phase or aqueous phase) at various concentrations have been tested. Among these, Fluorinert® FC-40 supplemented with 2% 008-Fluorosurfactant by Ran Biotechnologies provided optimal properties in terms of viscosity, volatility and droplet stability. Fluorosurfactant was added to prevent droplets from coalescence and cross-contamination of droplet contents when they touched each other (FIG. 6A). In addition, fluorosurfactant-emulsified droplets prevented fluorescent dye from adsorbing to the hydrophobic PDMS walls of the channel (FIG. 6B) or migrating into the oil phase (FIGS. 6C and 6D), in order to maintain constant drug concentrations in droplets. […] Droplets containing red fluorescent dye were incubated at 37° C. for 15 h, but no trace of fluorescent dye was observed along the PDMS walls as the droplet shrank due to evaporation. […]

Data set [1] has as its system Jurkat cells. In words: 96-well microtiter plate drug screening assay (Alamar Blue). The following applies: 96-well plate. The format is cell-based, human. The protocol:
(§1) Jurkat E6.1 cells (ATCC® TIB-152™) and MDA-MB-231 cells (ATCC® HTB-26™) were used as models for suspended and adherent cancer cell lines respectively. Jurkat cell line was derived from human acute T cell leukemia, whereas MDA-MB-231 cell line was derived from human metastatic breast adenocarcinoma.
(§2) Microtiter plate drug screening assays were carried out on 96-well clear round flat-bottom plates (Corning, USA) or 384-well white square flat-bottom plates (Corning, USA).
(§3) First, 5.0×10^5 or 1.0×10^5 cells were seeded per well for 96-well and 384-well plates respectively. Drugs were diluted with Dulbecco's phosphate-buffered saline (DPBS) (Life Technologies, USA), and subsequently added to achieve final drug concentrations as indicated on the graphs. Afterwards, the plates were transferred to humidified incubator at 37° C. supplemented with 5% CO2 for 16-24 h incubation. Finally, Alamar Blue assay was used to measure cell viability. Fluorescence intensity (Ex. 560 nm, Em. 590 nm) using auto-cutoff was measured from bottom on plate reader (Molecular Devices SpectraMax MS Plate Reader, USA). Cells treated with 0.1% dimethyl sulfoxide (DMSO) were used as negative control, while no cells were added to blank control. All experiments were performed in triplicate for 96-well plates and in quadruplicates for 384-well relates.
(§4) For microliter plate assays, average relative fluorescence signal measured by plate reader from 6 reads of each well was used as raw data point. Cell viability was calculated as follows: […]
(§5) where Sample represented raw data points of each sample well, whereas DMSO control and Blank represented average raw data points of all DMSO control and Blank wells, respectively.

Data set [2] concerns MDA-MB-231 cells. The description is as above. Type of data set: cell-based, human. The following applies: 96-well plate. As for the experimental part: as §1, §2, §3, §4, §5
Data set [3] concerns Jurkat cells. Kind of data set: 384-well microtiter plate drug screening assay (Alamar Blue). The format is cell-based, human. The following applies: 384-well plate. The protocol: as §1, §2, §3, §4, §5
Background: The colour change of resazurin is a common sign of viable cells or microbes.

Data set [4] concerns MDA-MB-231 cells. The description is as above. The format is cell-based, human. The following applies: 384-well plate. As for the experimental part: as §1, §2, §3, §4, §5
Data set [5] deals with Jurkat cells. Kind of data set: On chip drug screening assay (ethidium homodimer 1 staining). The format is cell-based, human. The protocol:
Jurkat E6.1 cells (ATCC® TIB-152™) and MDA-MB-231 cells (ATCC® HTB-26™) were used as models for suspended and adherent cancer cell lines respectively. Jurkat cell line was derived from human acute T cell leukemia, whereas MDA-MB-231 cell line was derived from human metastatic breast adenocarcinoma. On chip drug screening was performed using the PDMS-based microfluidic chip as described above. A 500 μL glass syringe (Hamilton, USA) and polytetrafluoroethylene (PTFE) tubings with appropriate bore (Cole Parmer, USA) was used to connect between the syringe pump (Harvard Apparatus PHD Ultra Syringe Pump, USA) and the microfluidic chip. Fluorinert® FC-40 (Sigma-Aldrich, USA) supplemented with 2% 008-Fluorosurfactant (Ran Biotechnologies, USA) was used as oil phase; relevant cell culture medium, supplemented with 1% (w/v) methyl cellulose (Sigma-Aldrich, USA) was used as aqueous phase. Cells treated with 0.1% dimethyl sulfoxide (DMSO) were used as negative control. […] Next, […], cell-drug mixtures were loaded into the tubing, consecutively segregated by oil phase at withdrawal rate of 200 μL/h by syringe pump. After loading all mixtures, the tubing was inserted into the microfluidic chip, which was back-flushed with oil phase at 500 μL/h by syringe pump. After that, the mixtures were infused at 25 μL/h by syringe pump. Finally, the inlet and outlet tubings were cut and sealed with Vaseline (Vaseline, USA). […] Brightfield and red fluorescence images (Ex. 531/40 nm, Em. 593/40 nm) were taken under 10× magnification (Life Technologies EVOS FL Imaging System, USA). […] For on chip assays, the number of cells was counted in brightfield and red fluorescence images from each well respectively.

In data set [6] the test system is MDA-MB-231 cells. Described as above. The format is cell-based, human. The following applies: for IC50: Homo sapiens. As for the experimental part: as §1
On chip drug screening was performed using the PDMS-based microfluidic chip as described above. A 500 μL glass syringe (Hamilton, USA) and polytetrafluoroethylene (PTFE) tubings with appropriate bore (Cole Parmer, USA) was used to connect between the syringe pump (Harvard Apparatus PHD Ultra Syringe Pump, USA) and the microfluidic chip. Fluorinert® FC-40 (Sigma-Aldrich, USA) supplemented with 2% 008-Fluorosurfactant (Ran Biotechnologies, USA) was used as oil phase; relevant cell culture medium, supplemented with 1% (w/v) methyl cellulose (Sigma-Aldrich, USA) was used as aqueous phase. Cells treated with 0.1% dimethyl sulfoxide (DMSO) were used as negative control.
Briefly, cells at final concentrations of 1-2×10^6 cells per mL were aliquoted in 0.2 mL PCR tubes, then mixed with corresponding drugs and 2 μM ethidium homodimer 1 (Life Technologies, USA) by manual pipetting. Next, […], cell-drug mixtures were loaded into the tubing, consecutively segregated by oil phase at withdrawal rate of 200 μL/h by syringe pump. After loading all mixtures, the tubing was inserted into the microfluidic chip, which was back-flushed with oil phase at 500 μL/h by syringe pump. After that, the mixtures were infused at 25 μL/h by syringe pump. Finally, the inlet and outlet tubings were cut and sealed with Vaseline (Vaseline, USA). The chips were placed in 150 mm cell culture dish (Coming, USA) containing wet paper towels, and transferred to humidified incubator at 37° C. supplemented with 5% CO2 for 16-24 h incubation. Brightfield and red fluorescence images (Ex. 531/40 nm, Em. 593/40 nm) were taken under 10× magnification (Life Technologies EVOS FL Imaging System, USA).
For on chip assays, brightfield and red fluorescence images were initially processed by ImageJ v.1.50i, Cell counting was either performed manually or by Matlab v.R201.5a based on the workflow shown on FIG. 5B. Briefly, cells from brightfield and red fluorescence images were detected separately using a heuristic Hough Transformation model based on threshold implementation on circular diameter and pixel intensity. Next, each recognized cell was dissected into 10×10 pixels matrix for analysis of its pixel intensity. Subsequently, two layers of multi-radii analysis of pixel intensity around the center of each matrix distinguished signal from noise. Afterwards, cells were distinguished from noise based on the brightfield image, whereas cell viability was determined by signal intensity of corresponding red fluorescence image. Finally, positional information (defined by row: x, and column: y) and size (defined by radius: r) of discrete image matrix was used to classify each cell as “live” or “dead”. The total number of cells in each image corresponding to each droplet formation well on chip was summarized as a table in CSV format for calculation of cell viability. […]
For on chip assays, the number of cells was counted in brightfield and red fluorescence images from each well respectively. Cell viability was calculated as follows: […]
where Total cells and Dead cells referred to the total number of cells counted from brightfield and red fluorescence images, respectively. […]

In another data set the test system is cells. In words: Time-lapse imaging of cells incubated with viability indicator dye. Type of data set: cell-based. The following applies: 2 μM, within 48 h post-treatment. The protocol: Thirdly, different cell viability indicator dyes were tested for staining efficiency, indicator reliability and cytotoxicity on chip. Since the sample fluid was premixed before loading to the chip, we tested for different cell viability indicator dyes and variant concentrations to ensure that the indicator dye had no impact on cell viability, at least within the time frame of the drug susceptibility test. Eventually, ethidium homodimer 1 staining was adopted to indicate dead cells. Ethidium homodimer 1 is a cell-impermeable, high affinity nucleic acid stain emitting strong red fluorescence after binding to DNA. It gave strong red fluorescence after cells were treated with drug but not DMSO) (FIG. 12).

For the compound Triton X-100, the “effect on cell viability” value in the data set with cancer cell lines was “compromised cell viability”.

In the case of `O=C(CCCCCCC(=O)Nc1ccccc1)NO` [vorinostat], the cell viability plateau result in the data set on Jurkat cells [1] (all doses tested), in the data set on MDA-MB-231 cells [2], in the data set with Jurkat cells [3] (all doses tested), with MDA-MB-231 cells [4] and with Jurkat cells [5] (all doses tested) was “above 50%” throughout. Also, the IC50 (in general, the concentration at which inhibition is half-maximal) with MDA-MB-231 cells [6] is 33.3 µM.

As for ethidium homodimer 1, the “effect on cell death and proliferation” value in the data set on cells is “did not affect cell death and proliferation”.

In the case of `CCCCCCCCCCCCOS(=O)(=O)[O-].[Na+]` [sodium dodecyl sulfate], the “effect on cell viability” value in the data set with cancer cell lines is reported as “compromised cell viability”.

Take `COc1cccc2c1C(=O)c1c(O)c3c(c(O)c1C2=O)C[C@@](O)(C(=O)CO)C[C@@H]3O[C@H]1C[C@H](N)[C@@H](O)[C@H](C)O1` [epirubicin]: the IC50 with Jurkat cells [1] (Homo sapiens, 16-24 h) is 1 to 2.2 µM; in the data set with MDA-MB-231 cells [2] (Homo sapiens), 0.6 µM; in the data set with Jurkat cells [3] (Homo sapiens, 16-24 h) it was 1 to 2.2 µM; in the data set with MDA-MB-231 cells [4] (Homo sapiens) it was 0.5 µM; in the data set with Jurkat cells [5] (Homo sapiens, 16-24 h), 1 to 2.2 µM; in the data set with MDA-MB-231 cells [6], 5.5 µM. For the same compound, in the data set with MDA-MB-231 cells [6] (after reaching IC50), the “cell viability leveled off” value is given as “approximately 50%”.
